Type in all cases: biochemical
Experiment [1] has as its target T1, autotaxin (ATX, NPP-2, lysophospholipase D) (Homo sapiens, UniProt Q13822). Nature of the experiment: LPLD activity (choline release from LPC), […] compound, about […] reduction. As to conditions: read-out: % reduction at 15 mM. Also on record: gene ENPP2; recombinant human ATX (vATX).
For experiment [2], the target named is T1, autotaxin (ATX, NPP-2, lysophospholipase D). Nature of the experiment: LPLD activity (choline release from LPC) and PDE activity (pNp-TMP) with purified recombinant ATX. Also on record: gene ENPP2; recombinant human ATX (vATX), cloned from an MDA-MB-435 cell library.
Experiment [3] shares this target. Briefly: LPLD activity (choline release from LPC), […] compound, […] reduction. Details: gene ENPP2; recombinant human ATX (vATX). As to conditions: read-out: % reduction at 15 mM.
For experiment [4] the target is unchanged. Nature of the experiment: LPLD activity (choline release from LPC), […] compound, […] reduction; methyl on the alpha nitrogen. Also on record: gene ENPP2; recombinant human ATX (vATX). The settings on record: read-out: % reduction at 15 mM.
The target is the same in experiment [5]. Briefly: LPLD enzyme kinetics (choline release), Km. Details: gene ENPP2; recombinant human ATX (vATX).
Experiment [6] shares this target. Nature of the experiment: LPLD activity (choline release from LPC), […] compound, about […] reduction. Details: gene ENPP2; recombinant human ATX (vATX). As to conditions: read-out: % reduction at 15 mM. This is another data set of the same source.

The text below walks through data of paper PMC554093, “L-histidine inhibits production of lysophosphatidic acid by the tumor-associated cytokine, autotaxin” (Lipids in Health and Disease, 2005).

Regarding `N[C@H](Cc1c[nH]cn1)C(=O)O` [D-histidine], in experiment [1], the inhibition at 15000 µM was approximately 75%.

In the case of `N[C@@H](Cc1c[nH]cn1)C(=O)O` [L-histidine], the IC50 – broadly, the concentration that inhibits the measured activity by half – in experiment [2] came to 4 ± 1.1 mM. Consider `COC(=O)[C@@H](N)Cc1c[nH]cn1` [histidine methyl ester], for which, in experiment [3], the inhibition at 15000 µM came out at 65%. With `CN[C@@H](Cc1c[nH]cn1)C(=O)O` [N-methyl histidine], the inhibition at 15000 µM in experiment [4] was 30%. LPC (18:1): the Michaelis-Menten constant (Km) (in general, the substrate concentration at which the rate is half of its maximum) in experiment [5] was determined as 490 ± 50 µM. Regarding `NC(=O)[C@@H](N)Cc1c[nH]cn1` [histidinamide], the inhibition at 15000 µM in experiment [6] is approximately 20%.
